Experimental data taken from ChEMBL document CHEMBL1201862, “PubChem BioAssay data set” (2004).
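Protocol summary: plate cells (96-well), add compound at 5 concentrations, incubate 48 h, interpolate endpoints linearly. GI50 marks 50% less growth.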 Calls of active or inactive are those of the source. Rule as the data show it: active = GI50 up to about 1.1 µM and inactive = higher.

What was measured:
Test in all cases: inhibition of tumour cell growth, NCI panel, 48 h
COLO 205 = system: COLO 205
LOX IMVI = system: LOX IMVI
SF-268 = system: SF-268
MOLT-4 = system: MOLT-4
A498 = system: A498
SR = system: SR
M14 = system: M14
HCT-15 = system: HCT-15
HOP-62 = system: HOP-62
OVCAR-8 = system: OVCAR-8
EKVX = system: EKVX
SF-295 = system: SF-295
U-251 = system: U-251
SN12C = system: SN12C
HOP-92 = system: HOP-92
NCI-H522 = system: NCI-H522
SK-MEL-28 = system: SK-MEL-28
HCC 2998 = system: HCC 2998

SMILES | GI50 (COLO 205) | GI50 (LOX IMVI) | GI50 (SF-268) | GI50 (MOLT-4) | GI50 (A498) | GI50 (SR) | GI50 (M14) | GI50 (HCT-15) [µM] | GI50 (HOP-62) | GI50 (OVCAR-8) | GI50 (EKVX) | GI50 (SF-295) | GI50 (U-251) | GI50 (SN12C) | GI50 (HOP-92) | GI50 (NCI-H522) | GI50 (SK-MEL-28) | GI50 (HCC 2998)
CCN(CC)c1ccc(/N=N\c2ccc(-c3nc4ccc[n+](C)c4s3)cc2)cc1 | 3.24 µM (inactive) | 0.423 µM (active) | 6.07 µM (inactive) | 2.84 µM (inactive) | 13.4 µM (inactive) | 4.5 µM (inactive) | 13.2 µM (inactive) | 16.7 | 17.3 µM (inactive) | 8.57 µM (inactive) | 24 µM (inactive) | 17.8 µM (inactive) | 4.07 µM (inactive) | 4.29 µM (inactive) | 10.6 µM (inactive) | 3.06 µM (inactive) | – | –
CC1=C2C(O)C(C(C)C(=O)NCC(C)C)CCC2(C)C=CC1=O (stereo unspecified) | > 100 µM (inactive) | > 100 µM (inactive) | > 100 µM (inactive) | > 100 µM (inactive) | > 100 µM (inactive) | – | – | > 100 | > 100 µM (inactive) | > 100 µM (inactive) | > 100 µM (inactive) | > 100 µM (inactive) | > 100 µM (inactive) | > 100 µM (inactive) | > 100 µM (inactive) | > 100 µM (inactive) | > 100 µM (inactive) | > 100 µM (inactive)
O=C1c2ccccc2OCC1/C=N/O (stereo unspecified) | – | 31.3 µM (inactive) | > 58.9 µM (inactive) | > 100 µM (inactive) | > 100 µM (inactive) | – | – | 63.7 | > 100 µM (inactive) | > 100 µM (inactive) | 65.6 µM (inactive) | > 100 µM (inactive) | > 100 µM (inactive) | > 80.5 µM (inactive) | > 55.1 µM (inactive) | 24.9 µM (inactive) | 51.6 µM (inactive) | > 100 µM (inactive)
Cc1cccc(Cl)c1NC(N)=S | > 100 µM (inactive) | – | 51.3 µM (inactive) | 47.1 µM (inactive) | 66.7 µM (inactive) | – | 87.5 µM (inactive) | 18.4 | 50.8 µM (inactive) | 25.8 µM (inactive) | 48.2 µM (inactive) | 73.8 µM (inactive) | 20.8 µM (inactive) | > 100 µM (inactive) | 35.4 µM (inactive) | – | 55.1 µM (inactive) | > 100 µM (inactive)
CN(C)CCC1(C2=CCCC2)CC/C(=C\c2ccc3c(c2)OCO3)C1=O (stereo unspecified) | 18.7 µM (inactive) | – | 14.4 µM (inactive) | 12.3 µM (inactive) | 12.2 µM (inactive) | – | 14.7 µM (inactive) | 13.9 | – | 15.6 µM (inactive) | 15.8 µM (inactive) | 16 µM (inactive) | 15.6 µM (inactive) | 14.5 µM (inactive) | 11.4 µM (inactive) | – | 14.3 µM (inactive) | 15.8 µM (inactive)
CCCCCCCC(=O)OC(COC(=O)Cc1ccccc1)COC(=O)C(C)(C)C (stereo unspecified) | 46.3 µM (inactive) | > 100 µM (inactive) | > 100 µM (inactive) | 71.9 µM (inactive) | > 100 µM (inactive) | 64 µM (inactive) | > 100 µM (inactive) | > 100 | > 100 µM (inactive) | > 100 µM (inactive) | – | > 100 µM (inactive) | > 100 µM (inactive) | > 100 µM (inactive) | 32.8 µM (inactive) | – | > 100 µM (inactive) | > 100 µM (inactive)
C#CCC[C@@H]1O[C@@]1(C)CC/C=C(\C)CC/C=C/C=O | 26.7 µM (inactive) | 18.4 µM (inactive) | 22.2 µM (inactive) | 22.4 µM (inactive) | – | 26.4 µM (inactive) | 21.3 µM (inactive) | 35 | > 100 µM (inactive) | 18.6 µM (inactive) | 58.3 µM (inactive) | 26.5 µM (inactive) | 22 µM (inactive) | 30.3 µM (inactive) | 28.5 µM (inactive) | – | – | –
Cn1c(=O)c2nc3c4ccccc4c(=O)n(C)c3nc2n(C)c1=O | > 100 µM (inactive) | – | > 100 µM (inactive) | > 100 µM (inactive) | – | > 100 µM (inactive) | – | > 100 | – | > 100 µM (inactive) | > 100 µM (inactive) | > 100 µM (inactive) | > 100 µM (inactive) | > 100 µM (inactive) | > 100 µM (inactive) | – | > 100 µM (inactive) | > 100 µM (inactive)
C=C(C)C(=O)OC1C/C(CO)=C\C(O)C/C(C)=C/C2OC(=O)C(=C)C21 (stereo unspecified) | 17.1 µM (inactive) | 18.5 µM (inactive) | 22.2 µM (inactive) | 21.3 µM (inactive) | – | 19.9 µM (inactive) | 17.7 µM (inactive) | 14.1 | > 100 µM (inactive) | 20.3 µM (inactive) | 25.2 µM (inactive) | > 100 µM (inactive) | > 100 µM (inactive) | 20 µM (inactive) | 20.8 µM (inactive) | 12.8 µM (inactive) | 17.3 µM (inactive) | > 10 µM (inactive)
O=S(=O)(c1ccccc1)c1nccs1 | > 100 µM (inactive) | > 100 µM (inactive) | > 100 µM (inactive) | > 100 µM (inactive) | > 100 µM (inactive) | > 100 µM (inactive) | > 100 µM (inactive) | > 100 | > 100 µM (inactive) | > 100 µM (inactive) | > 100 µM (inactive) | > 100 µM (inactive) | > 100 µM (inactive) | > 100 µM (inactive) | – | > 100 µM (inactive) | > 100 µM (inactive) | > 100 µM (inactive)
O=C(NCCO)c1cc2c(cn1)[nH]c1ccccc12 | > 100 µM (inactive) | > 100 µM (inactive) | > 100 µM (inactive) | > 100 µM (inactive) | > 100 µM (inactive) | – | > 100 µM (inactive) | > 100 | 17.9 µM (inactive) | > 100 µM (inactive) | > 100 µM (inactive) | > 100 µM (inactive) | > 100 µM (inactive) | > 100 µM (inactive) | > 100 µM (inactive) | > 100 µM (inactive) | > 100 µM (inactive) | 16.9 µM (inactive)
COC(=O)c1sc(C(=O)OC)c2c1C[S+]([O-])C2 | > 100 µM (inactive) | > 100 µM (inactive) | > 100 µM (inactive) | > 100 µM (inactive) | > 100 µM (inactive) | – | > 100 µM (inactive) | > 100 | – | > 100 µM (inactive) | > 100 µM (inactive) | > 100 µM (inactive) | > 100 µM (inactive) | – | > 100 µM (inactive) | > 100 µM (inactive) | > 100 µM (inactive) | > 100 µM (inactive)
Cc1oc2c(C)c3oc(=O)cc(C)c3cc2c1CN1C(=O)C2OCCOCCOCCOCCOCCO[C@H]2C1=O (stereo partly specified) | > 100 µM (inactive) | > 100 µM (inactive) | > 100 µM (inactive) | > 100 µM (inactive) | > 100 µM (inactive) | > 100 µM (inactive) | > 100 µM (inactive) | > 100 | > 100 µM (inactive) | > 100 µM (inactive) | > 100 µM (inactive) | > 100 µM (inactive) | > 100 µM (inactive) | > 100 µM (inactive) | > 100 µM (inactive) | > 100 µM (inactive) | – | > 100 µM (inactive)
Cn1cc(NC(=O)c2cc(NC(=O)CCCCCCCC(=O)Nc3cc(C(=O)Nc4cc(C(=O)NCCC(=N)N)n(C)c4)n(C)c3)cn2C)cc1C(=O)NCCC(=N)N | 13.2 µM (inactive) | 15 µM (inactive) | 19.8 µM (inactive) | 21.9 µM (inactive) | 13.7 µM (inactive) | 5.26 µM (inactive) | 27.9 µM (inactive) | > 100 | > 100 µM (inactive) | 19.1 µM (inactive) | 22 µM (inactive) | > 100 µM (inactive) | 17.2 µM (inactive) | 12.6 µM (inactive) | > 100 µM (inactive) | – | 11.7 µM (inactive) | 16.1 µM (inactive)
CCCCCCCCCCCCCCNCC(OC)OC | 14.4 µM (inactive) | 16.4 µM (inactive) | 18.5 µM (inactive) | – | 19.8 µM (inactive) | – | 14.1 µM (inactive) | 11.8 | 16.7 µM (inactive) | 20.1 µM (inactive) | 18.2 µM (inactive) | 19.7 µM (inactive) | 16.3 µM (inactive) | 15.1 µM (inactive) | 10.2 µM (inactive) | 16.9 µM (inactive) | 16.5 µM (inactive) | 18.6 µM (inactive)
Cc1ccc2nc(/C(=C/c3ccc(/C=C(\NC(=O)c4ccccc4)c4nc5ccc(C)cc5[nH]4)c(C)c3)NC(=O)c3ccccc3)[nH]c2c1 | 25.1 µM (inactive) | – | 3.45 µM (inactive) | 0.383 µM (active) | 11.4 µM (inactive) | 27.2 µM (inactive) | 23 µM (inactive) | 3.13 | 46.6 µM (inactive) | 7.01 µM (inactive) | 12.5 µM (inactive) | – | 22.7 µM (inactive) | 5.5 µM (inactive) | 16.4 µM (inactive) | 22.2 µM (inactive) | 25.2 µM (inactive) | –
O=c1cccccc1NCCOCCNc1cccccc1=O | > 100 µM (inactive) | > 100 µM (inactive) | > 100 µM (inactive) | > 100 µM (inactive) | > 100 µM (inactive) | – | > 100 µM (inactive) | > 100 | > 100 µM (inactive) | > 100 µM (inactive) | > 100 µM (inactive) | > 100 µM (inactive) | > 100 µM (inactive) | > 100 µM (inactive) | – | > 100 µM (inactive) | > 100 µM (inactive) | > 100 µM (inactive)
COc1nc(N)c(C(=O)CCl)c(=O)n1C | 10.6 µM (inactive) | 5.28 µM (inactive) | 19.1 µM (inactive) | 13.9 µM (inactive) | 15.4 µM (inactive) | 15.3 µM (inactive) | > 10 µM (inactive) | – | – | 19 µM (inactive) | 15.1 µM (inactive) | 15.2 µM (inactive) | 15.5 µM (inactive) | 17.5 µM (inactive) | 4.66 µM (inactive) | – | 12 µM (inactive) | 9.68 µM (inactive)
